Test results: patent publication US7138361B2, “Herbicidal heterocycles” (E. I. du Pont de Nemours and Company, priority 2000, dated 2006)

Columns and labels:
Type in all cases: in vivo
[1] = test system: kochia (Kochia scoparia); assay: Test C preemergence
Description: (§1) Seeds of plant species selected from bermudagrass (Cynodon dactylon), Surinam grass (Brachiaria decumbens), cocklebur (Xanthium strumarium), corn (Zea mays), crabgrass (Digitaria sanguinalis), woolly cupgrass (Eriochloa villosa), giant foxtail (Setaria faberii), goosegrass (Eleusine indica), johnsongrass (Sorghum halepense), kochia (Kochia scoparia), lambsquarters (Chenopodium album), morningglory (Ipomoea hederacea), yellow nutsedge (Cyperus esculentus), pigweed (Amaranthus retroflexus), common ragweed (Ambrosia elatior), soybean (Glycine max) and velvetleaf (Abutilon theophrasti) were planted and treated preemergence with test chemicals formulated in a non-phytotoxic solvent mixture which included a surfactant.
(§2) At the same time, plants selected from these crop and weed species and also winter barley (Hordeum vulgare), blackgrass (Alopecurus myosuroides), canary grass (Phalaris minor), chickweed (Stellaria media), downy brome (Bromus tectorum), green foxtail (Setaria viridis), Italian ryegrass (Lolium multiflorum), wheat (Triticum aestivum), wild oat (Avena fatua) and windgrass (Apera spica-venti) were treated with postemergence applications of some of the test chemicals formulated in the same manner. Plants ranged in height from 2 to 18 cm (1- to 4-leaf stage) for postemergence treatments. Plant species in the flooded paddy test consisted of rice (Oryza saliva), smallflower flatsedge (Cyperus difformis), duck salad (Heteranthera limosa) and barnyardgrass (Echinochloa crus-galli) grown to the 2-leaf stage for testing. Treated plants and controls were maintained in a greenhouse for 12 to 14 days, after which time all species were compared to controls and visually evaluated. Plant response ratings, summarized in Table C, are based on a scale of 0 to 100 where 0 is no effect and 100 is complete control. A dash (-) response means no test result.

[2] = test system: woolly cupgrass (Eriochloa villosa); assay: Test C preemergence
Description: as §1, §2

[3] = test system: soybean (Glycine max); assay: Test C preemergence
Description: as §1, §2

[4] = test system: giant foxtail (Setaria faberii); assay: Test C preemergence
Description: as §1, §2

[5] = test system: crabgrass (Digitaria sanguinalis); assay: Test C preemergence
Description: as §1, §2

[6] = test system: pigweed (Amaranthus retroflexus); assay: Test C preemergence
Description: as §1, §2

[7] = test system: bermudagrass (Cynodon dactylon); assay: Test C preemergence
Description: as §1, §2

[8] = test system: cocklebur (Xanthium strumarium); assay: Test C preemergence
Description: as §1, §2

[9] = test system: Surinam grass (Brachiaria decumbens); assay: Test C preemergence
Description: as §1, §2

[10] = test system: Sunflower; assay: Test C preemergence; conditions: Rate 250 g/ha, scale 0 to 100, 0 no effect, 100 complete control
[11] = test system: giant foxtail (Setaria faberii); assay: Test B preemergence
In short: (§3)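 Ratings on a 0 to 100 visual scale (100 complete control) compare treated plants with controls 13 to 15 days after application. Treatments were pre- or postemergence sprays of compound in non-phytotoxic solvent with surfactant.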

[12] = test system: morning glory (Ipomoea hederacea); assay: Test B preemergence
In short: as §3

[13] = test system: crabgrass (Digitaria sanguinalis); assay: Test B preemergence
In short: as §3

[14] = test system: rice (Oryza saliva); assay: Test B preemergence
In short: as §3

[15] = test system: pigweed (Amaranthus retroflexus); assay: Test B preemergence
In short: as §3

[16] = test system: corn (Zea mays); assay: Test B preemergence
In short: as §3

[17] = test system: lambsquarters (Chenopodium album); assay: Test B preemergence
In short: as §3

[18] = test system: barnyardgrass (Echinochloa crus-galli); assay: Test B preemergence
In short: as §3

[19] = test system: cocklebur (Xanthium strumarium); assay: Test B preemergence
In short: as §3

[20] = test system: velvetleaf (Abutilon theophrasti); assay: Test B preemergence
In short: as §3

[21] = test system: Surinam grass (Brachiaria decumbens); assay: Test B preemergence
In short: as §3

[22] = Rate 125 g/ha, scale 0 to 100, 0 no effect, 100 complete control
[23] = preemergence, Rate 31 g/ha, scale 0 to 100
[24] = preemergence, Rate 62 g/ha, scale 0 to 100
[25] = preemergence, Rate 250 g/ha, scale 0 to 100, 0 no effect, 100 complete control
[26] = Preemergence, Rate 500 g/ha, scale 0 to 100, 0 no effect, 100 complete control
[27] = preemergence, Rate 125 g/ha, scale of 0 to 100 where 0 is no effect and 100 is complete control, 13 to 15 days

CCCC(C)c1ccn(C2SCN(c3cccc(OC(F)(F)F)c3)C2=O)n1 (stereo not drawn) [Compound 90]
Plant response rating, Kochia [1, 22]: 40 | Plant response rating, Kochia [1, 23]: 0 | Plant response rating, Kochia [1, 24]: 0 | Plant response rating, Kochia [1, 25]: 80 | Plant response rating, Cupgrass, Woolly [2, 22]: 10 | Plant response rating, Cupgrass, Woolly [2, 23]: 0 | Plant response rating, Cupgrass, Woolly [2, 24]: 0 | Plant response rating, Cupgrass, Woolly [2, 25]: 60 | Plant response rating, Soybean [3, 22]: 0 | Plant response rating, Soybean [3, 23]: 0 | Plant response rating, Soybean [3, 24]: 0 | Plant response rating, Soybean [3, 25]: 0 | Plant response rating, Foxtail, Giant [4, 22]: 0 | Plant response rating, Foxtail, Giant [4, 23]: 0 | Plant response rating, Foxtail, Giant [4, 24]: 40 | Plant response rating, Foxtail, Giant [4, 25]: 40 | Plant response rating, Crabgrass [5, 22]: 100 | Plant response rating, Crabgrass [5, 23]: 80 | Plant response rating, Crabgrass [5, 24]: 80 | Plant response rating, Crabgrass [5, 25]: 100 | Plant response rating, Pigweed [6, 22]: 0 | Plant response rating, Pigweed [6, 23]: 0 | Plant response rating, Pigweed [6, 24]: 60 | Plant response rating, Pigweed [6, 25]: 100 | Plant response rating, Bermudagrass [7, 22]: 100 | Plant response rating, Bermudagrass [7, 23]: 0 | Plant response rating, Bermudagrass [7, 24]: 0 | Plant response rating, Bermudagrass [7, 25]: 100 | Plant response rating, Cocklebur [8, 22]: 0 | Plant response rating, Cocklebur [8, 23]: 0 | Plant response rating, Cocklebur [8, 24]: 0 | Plant response rating, Cocklebur [8, 25]: 0 | Plant response rating, Surinam grass [9, 22]: 10 | Plant response rating, Surinam grass [9, 23]: 0 | Plant response rating, Surinam grass [9, 24]: 0 | Plant response rating, Surinam grass [9, 25]: 40 | Plant response rating, Sunflower [10]: 10 | Plant response rating, Foxtail, Giant [11, 26]: 100 | Plant response rating, Foxtail, Giant [11, 27]: 80 | Plant response rating, Morningglory [12, 26]: 0 | Plant response rating, Morningglory [12, 27]: 0 | Plant response rating, Crabgrass [13, 26]: 100 | Plant response rating, Crabgrass [13, 27]: 90 | Plant response rating, Rice [14, 26]: 0 | Plant response rating, Rice [14, 27]: 0 | Plant response rating, Pigweed [15, 26]: 100 | Plant response rating, Pigweed [15, 27]: 80 | Plant response rating, Corn [16, 26]: 20 | Plant response rating, Corn [16, 27]: 0 | Plant response rating, Lambsquarters [17, 26]: 100 | Plant response rating, Lambsquarters [17, 27]: 100 | Plant response rating, Barnyardgrass [18, 26]: 100 | Plant response rating, Barnyardgrass [18, 27]: 50 | Plant response rating, Cocklebur [19, 26]: 0 | Plant response rating, Cocklebur [19, 27]: 0 | Plant response rating, Velvetleaf [20, 26]: 0 | Plant response rating, Velvetleaf [20, 27]: 0 | Plant response rating, Surinam grass [21, 26]: 80 | Plant response rating, Surinam grass [21, 27]: 20

CC(C)(C)c1ccn(C2CCN(c3cccc([S+]([O-])C(F)(F)F)c3)C2=O)n1 (stereo not drawn) [Compound 101]
Plant response rating, Kochia [1, 22]: 0 | Plant response rating, Kochia [1, 23]: 0 | Plant response rating, Kochia [1, 24]: 0 | Plant response rating, Kochia [1, 25]: 0 | Plant response rating, Cupgrass, Woolly [2, 22]: 20 | Plant response rating, Cupgrass, Woolly [2, 23]: 0 | Plant response rating, Cupgrass, Woolly [2, 24]: 0 | Plant response rating, Cupgrass, Woolly [2, 25]: 100 | Plant response rating, Soybean [3, 22]: 0 | Plant response rating, Soybean [3, 23]: 0 | Plant response rating, Soybean [3, 24]: 0 | Plant response rating, Soybean [3, 25]: 50 | Plant response rating, Foxtail, Giant [4, 22]: 40 | Plant response rating, Foxtail, Giant [4, 23]: 0 | Plant response rating, Foxtail, Giant [4, 24]: 40 | Plant response rating, Foxtail, Giant [4, 25]: 100 | Plant response rating, Crabgrass [5, 22]: 100 | Plant response rating, Crabgrass [5, 23]: 90 | Plant response rating, Crabgrass [5, 24]: 100 | Plant response rating, Crabgrass [5, 25]: 100 | Plant response rating, Pigweed [6, 22]: 0 | Plant response rating, Pigweed [6, 23]: 0 | Plant response rating, Pigweed [6, 24]: 0 | Plant response rating, Pigweed [6, 25]: 10 | Plant response rating, Bermudagrass [7, 22]: 100 | Plant response rating, Bermudagrass [7, 23]: 40 | Plant response rating, Bermudagrass [7, 24]: 40 | Plant response rating, Bermudagrass [7, 25]: 100 | Plant response rating, Cocklebur [8, 22]: 0 | Plant response rating, Cocklebur [8, 23]: 0 | Plant response rating, Cocklebur [8, 24]: 0 | Plant response rating, Cocklebur [8, 25]: 50 | Plant response rating, Surinam grass [9, 22]: 20 | Plant response rating, Surinam grass [9, 23]: 0 | Plant response rating, Surinam grass [9, 24]: 0 | Plant response rating, Surinam grass [9, 25]: 40 | Plant response rating, Sunflower [10]: 30 | Plant response rating, Foxtail, Giant [11, 26]: 100 | Plant response rating, Foxtail, Giant [11, 27]: 0 | Plant response rating, Morningglory [12, 26]: 0 | Plant response rating, Morningglory [12, 27]: 0 | Plant response rating, Crabgrass [13, 26]: 100 | Plant response rating, Crabgrass [13, 27]: 90 | Plant response rating, Rice [14, 27]: 0 | Plant response rating, Pigweed [15, 26]: 100 | Plant response rating, Pigweed [15, 27]: 40 | Plant response rating, Corn [16, 26]: 70 | Plant response rating, Corn [16, 27]: 0 | Plant response rating, Lambsquarters [17, 26]: 100 | Plant response rating, Lambsquarters [17, 27]: 100 | Plant response rating, Barnyardgrass [18, 26]: 100 | Plant response rating, Barnyardgrass [18, 27]: 30 | Plant response rating, Cocklebur [19, 26]: 0 | Plant response rating, Cocklebur [19, 27]: 0 | Plant response rating, Velvetleaf [20, 26]: 0 | Plant response rating, Velvetleaf [20, 27]: 0 | Plant response rating, Surinam grass [21, 26]: 80 | Plant response rating, Surinam grass [21, 27]: 0
